Test results as given in US10889847B2, “Kit and discs for use in disc diffusion antibiotic sensitivity testing” (YISSUM RESEARCH DEVELOPMENT COMPANY OF THE HEBREW …, priority 2015, dated 2021).

Assays:
[1] = system: E. coli tolerant strain tbl3a; test: Tolerance Diffusion test (TDtest), strain tbl3a; type: cell-based
Experimental: (§1) 2 Disc Test (TDtest) Procedure
(§2) The TDtest consists of two steps:
(§3) Step I—Incubation with Antibiotics:
(§4) Circa 10^7 bacteria at stationary phase (100 microliter) were plated on LBL nutrient agar plate. An antibiotic disc was placed on the agar. The plate with the antibiotic disc was incubated for at least 4 hours and up to 30 hours, preferably about 18 hours at 37° C.
(§5) The amount of antibiotics in each disk was adjusted to reach a concentration below the MIC in the inhibition zone after an overnight incubation at 37° C. Many commercial disks contain antibiotics in amounts that are too high for the concentration to fall below the MIC after this time. When this was the case, custom disks were prepared as specified herein below.
(§6) Step II—Incubation with Nutrient:
(§7) This step was carried out in one of the following protocols:
(§8) a. The antibiotic disk was replaced with a nutrient (i.e. 2 mg glucose) disk at the end of the antibiotic incubation time. The plate was incubated again for an additional overnight (at least 5 hours and up to 24 hours, preferably about 18 hours) at 37° C.
b. […]
Tolerant bacteria are identified by the use of two different TDtest methods, the two-disks TDtest and the single disk TDtest. […] The growth of the bacterium was monitored at several time points (0, 8, 17, 30 and 36 hours from the beginning of the test).

tbl3a = test: Time-kill experiment in liquid culture, tbl3a; type: cell-based, E. coli; conditions: for fraction of survivals: antibiotic 100 microgram/ml, after 2.6 hours
Experimental: (§9) Overnight bacterial cultures were diluted 1:100 in fresh medium containing antibiotic and incubated at 37° C. for designated time. Bacterial survival was determined by the most probable number-counting method (MPN), as described in Hurley, M. A. & Roscoe, M. E. Automated Statistical-Analysis of Microbial Enumeration by Dilution Series. J Appl. Bacteriol. 55:159-164 (1983).
These findings were verified by measuring the survival of tbl3a in liquid culture after exposure to the two antibiotics. An overnight culture was diluted and exposed either to ampicillin (100 microgram/ml) or kanamycin (100 microgram/ml). […] The large fraction of survivals in Ampicillin (12% after 2.6 hours) was predicted by the late colonies appearance, and is absent in Kanamycin (1.4E-8% after 2.6 hours).

tbl5a = test: Tolerance Diffusion test (TDtest), strain tbl5a, three growth media; type: cell-based, E. coli; conditions: after second step, LB agar, Mueller-Hinton agar, Mueller-Hinton+5% Blood agar
Experimental: FIG. 13A-13C show TDtest performed on three different growth media. The results are shown after the second step of TDtest examining the effect of ampicillin on tbl5a.
FIG. 13A is a LB agar plate.
FIG. 13B is a Mueller-Hinton agar plate.
FIG. 13C is a Mueller-Hinton+5% Blood agar plate.
as §1, §2, §3, §4, §5, §6, §7, §8
b. […]

[2] = system: E. cloacae clinical strain B340; test: Tolerance Diffusion test (TDtest), strain B340; type: cell-based; conditions: ampicillin disk replaced with glucose disk after 18 hours, read at 36 hours
Experimental: as §1, §2, §3, §4, §5, §6, §7, §8
(§10) b. Nutrient solution (i.e., 2 mg glucose, or 5 microliter of 40% glucose solution) was added directly on the antibiotic disk, instead of replacing it.
(§11) c. Two phases disk was prepared, by impregnating 6 mg glucose on the upper side of the disk.
After the completion of the above steps, the growth of the bacteria was visually inspected. […]

many species = conditions: in many species; cited from earlier work
[3] = system: E. coli strains W574 and U453; test: Survival fraction in liquid culture, W574 versus U453; type: cell-based; conditions: ertapenem 10 microgram/ml
Experimental: as §9

[4] = system: E. coli clinical strain U453; test: Tolerance Diffusion test (TDtest), strain U453; type: cell-based; conditions: ertapenem disk (0.25 microgram), glucose disk in step II
Experimental: as §1, §2, §3, §4, §5, §6, §7, §8, §10, §11
(§12) After the completion of the above steps, the growth of the bacteria was visually inspected.

[5] = system: E. coli clinical strain W574; test: Tolerance Diffusion test (TDtest), strain W574; type: cell-based; conditions: ertapenem disk (0.25 microgram), glucose disk in step II
Experimental: as §1, §2, §3, §4, §5, §6, §7, §8, §10, §11, §12

[6] = at 12 hours after 1 gram dosing; cited from earlier work
E. coli strain W574 = test: MIC, strain W574; type: cell-based; conditions: Escherichia coli
E. coli strain U453 = test: MIC, strain U453; type: cell-based; conditions: Escherichia coli

Compound	bacterial colonies in TDtest plate ([1]; after 36 hours, two-disks TDtest (glucose disk after 18 hours) or single disk TDtest)	tolerance by TDtest ([1]; ampicillin 10 microgram or kanamycin 15 microgram disk)	survival fraction under ampicillin relative to kanamycin (tbl3a; 100 microgram/ml each)	fraction of survivals (tbl3a) [%]	tolerance level by TDtest (tbl5a)	tolerance by TDtest (colonies in inhibition zone) [2]	MIC (many species)	fraction of survival of a liquid culture, W574 versus U453 [3]	tolerance level by TDtest (colonies inside the inhibition zone after step II) [4]	tolerance level by TDtest (colonies inside the inhibition zone after step II) [5]	mean serum concentration [6] [microgram/ml]	MIC (E. coli strain W574) [µg/mL]	MIC (E. coli strain U453) [µg/mL]
CC1(C)S[C@@H]2[C@H](NC(=O)[C@H](N)c3ccccc3)C(=O)N2[C@H]1C(=O)O [ampicillin]	bacterial colonies are well seen	very tolerant	three orders of magnitude lower	12	medium tolerance (“medium tolerance” is 10 to a few hundred colonies in the inhibition zone)	tolerant	around 4 microgram/ml						
NC[C@H]1O[C@H](O[C@H]2[C@H](O)[C@@H](O[C@H]3O[C@H](CO)[C@@H](O)[C@H](N)[C@H]3O)[C@H](N)C[C@@H]2N)[C@H](O)[C@@H](O)[C@@H]1O [kanamycin]				1.4E-8									
C[C@@H](O)[C@H]1C(=O)N2C(C(=O)O)=C(S[C@@H]3CN[C@H](C(=O)Nc4cccc(C(=O)O)c4)C3)[C@H](C)[C@H]12 [ertapenem]								higher tolerance	low tolerance	high tolerance	~10	< 0.05	< 0.05
